Experimental data published in patent publication US6423693B1, “Growth hormone releasing hormone expression system and methods of use, including use in animals” (Baylor College of Medicine, priority 1997, dated 2002).
No end group written: not given here.

Tests used:
[1] = test system: primary pig anterior pituitary cells; assay: GH release from primary pig anterior pituitary culture challenged with conditioned media; format: cell-based; conditions: 24 h stimulation at 37 C; media from 1 million primary pig myoblasts or media mixed with 10 ng synthetic peptide
Protocol: Primary pig myoblasts culture was obtained as described (Doumit & Merkel, 1992, Tissue & Cell 24:253-262). The cells were plated at a density of 1 million cells/100 mm plate and maintained in growth media for 2-3 days. The cells were passed for 2 times prior to transfection. The transfection and differentiation was made in the same conditions as for the primary chicken myoblast culture. The media and cells were harvested for analysis 48, 72 and 96 h postdifferentiation in both cases. The efficiency of transfection estimated by β-galactosidase histochemistry on control plates was 10%.
One day before harvesting, cells were washed twice in HBSS and changed in MEM, 0.1% BSA. The collected media was conditioned by adding ¼ volumes of 1% triflouroacetic acid (TFA) and 0.001% phenylmethylsulfonylflouride (PMSF), frozen at −80° C., lyophilized, purified on C-18 Sep-Columns (Peninsula Laboratories, CA, USA), relyophilized and used in RIA or resuspended in media conditioned for primary pig anterior pituitary culture. […]
B. In vitro activity of pSK-GHRH. Since anterior pituitary is the natural target of GHRH stimulation, we determined the biological activity of secreted GHRH from the media of pSK-GHRH transfected primary pig myoblasts (FIG. 8). […]

[2] = cited from earlier work
GH release = conditions: synthetic molecules, Ling et al 1984; cited from earlier work

Q: For “hGHRH (1-44)NH2: synthetic amidated human growth hormone releasing hormone (1-44) (YADAIFTNSYRKVLGQLSARKLLQDIMSRQQGESNQERGARARL-NH2; UniProt P01286 32-75, looked up)”, which GH release [1] is on record?
A: The GH release was 115 ± 3.2 ng/mL.

Q: For “hGHRH(1-40)OH: Human 1-40 OH growth hormone releasing hormone (YADAIFTNSYRKVLGQLSARKLLQDIMSRQQGESNQERGA-OH)”, which “potency in vivo relative to hGHRH(1-44)NH2” value [2] is on record?
A: The value was “same potency in vivo as hGHRH(1-44)NH2”.

Q: With “hGHRH(1-44)OH: non-amidated human GHRH (1-44), Tyr1 to Leu44; the molecule expressed by pSK-GHRH (YADAIFTNSYRKVLGQLSARKLLQDIMSRQQGESNQERGARARL-OH; UniProt P01286 32-75, looked up)” as the substance, how does the “less effective in releasing GH than the (1-44) amidated form” value (GH release) read?
A: The value was 30%.
